Reference: PMC12074795, “Synthesis and biological evaluation of esterified anti-inflammatory drugs with ethylene glycol linkers: cytotoxicity, anti-inflammatory and antioxidant properties” (Royal Society Open Science, 2025)

What was measured:
Type in all cases: biochemical
[1] = Ferric reducing antioxidant power (FRAP) test; conditions: 505 nm
Method: (§1) The in vitro antioxidant ability of the compounds synthesized in this work was evaluated using three different assays, including (i) the ABTS radical cation reduction-decolorization test, which uses the technique of Khan et al. consisting of the reduction of the cation radical by an antioxidant through the discoloration measured by absorption at the wavelength of 734 nm; (ii) interaction with the stable free radical DPPH, based on Bassene’s method, in which the scavenging of DPPH radicals is carried out by a colorimetric method consisting of the reduction of the DPPH radical, determined by its absorption at a wavelength of 517 nm; and (iii) the FRAP test according to the protocol of Path Canada, based on the ability of a substance to reduce Fe^3+ ions to Fe^2+ ions, which, in the presence of 1,10-phenanthroline, form a red-orange complex whose optical density can be measured at 505 nm.
The Fe^3+ reduction test followed Path Canada’s protocol with some modifications, assessing the reduction of Fe^3+ ions to Fe^2+ ions, which form a red-orange complex with 1,10-phenanthroline, measurable at 505 nm. The colour intensity correlates with the amount of Fe^3+ reduced. Four solutions were prepared: 1.2 mg ml^−1 of Fe^3+ solution (1.2 mg FeCl3 in 1 ml distilled H2O), 0.2% ortho-phenanthroline solution (200 mg powder in 100 ml ethanol), 2 mg ml^−1 of gallic acid solution (2 mg gallic acid in 1 ml distilled H2O) as a positive control, stock and dilute solutions of the synthesized compounds (see §3.2.5.1). In a 96-well microplate, 180 µl distilled H2O was added to the first column and 100 µl to others for dilution. Each compound solution (20 µl at 10 mg ml^−1) was mixed with 25 µl Fe^3+ solution and incubated for 15 min in the dark at room temperature. Afterwards, 50 µl ortho-phenanthroline solution was added, followed by another 15 min incubation. Optical density was measured at 505 nm using a TECAN M200 plate reader. The positive control was treated similarly to the DPPH and ABTS assays.
(§2) The percentages of scavenging or 50% reduction were calculated using gallic acid as a standard for 100% reduction. The concentration of radical scavengers needed to neutralize 50% of free radicals, referred to as SC50, was determined using GraphPad Prism 8.0.1 software (244).

[2] = ABTS radical cation scavenging (decolorization) test; conditions: 734 nm, 30 min
Method: as §1
The modified technique by Khan et al. was used to scavenge ABTS^+• cation radicals through a discoloration test. In this test, potassium permanganate (KMnO4) or potassium persulphate (K2S2O8) reacts with ABTS to generate a blue-green ABTS^+• radical. Antioxidants reduce this radical, leading to a measurable colour change at 734 nm, proportional to the antioxidant concentration. The antioxidant capacity is assessed by comparing the intensity reduction of ABTS colour with that of a reference antioxidant, gallic acid. Stock and dilute solutions of synthetic compounds were prepared as detailed in §3.2.5.1. Diluted concentrations were (50, 25, 12.5, 6.25, 3.125, 1.5625 and 0.78125)/Mi in mM. The ABTS solution was obtained by mixing ABTS with K2S2O8, producing an intense blue colour. The ABTS^+• radical was generated by combining equal volumes of a 4.9 mM K2S2O8 solution and a 7 mM ABTS stock solution, stored in the dark at room temperature for 15 h before use. The 7 mM ABTS stock was then diluted 20 times with distilled water. A total of 25 µl of each dilution was added to wells along with 75 µl of 0.175 mM ABTS+ solution. After 30 min of incubation in the dark at room temperature, optical densities were measured at 734 nm. Negative controls contained the ABTS reagent without synthesized compounds, while positive controls used gallic acid at the same final concentrations as the compounds. Compounds were also tested alone to assess fluorescence. The reduction of ABTS results in a blue discoloration, with lower absorbance indicating higher antioxidant activity.
as §2

[3] = DPPH radical scavenging test; conditions: 517 nm, 30 min
Method: as §1
The DPPH radical trapping protocol is based on Bassene’s method, modified for colorimetric analysis. DPPH is a stable purple organic nitrogen radical that absorbs light at 517 nm. When an anti-free radical agent is present, DPPH is reduced to a stable yellow compound, indicated by a loss of colour between 470 and 517 nm. A 0.02% DPPH solution was made with ethanol and stored in a sealed jar in the dark. Stock solutions of the synthesized compounds were prepared by dissolving 100 mg of each in 1 ml of DMSO, and the final concentration of DMSO concentration in the first well was 0.5%. These stocks were then diluted to achieve concentrations (500, 250, 125, 62.5, 31.25, 15.625 and 7.8125)/Mi in mM (Mi: molecular weight of each synthetic compound). Each dilution (25 µl) was put to the wells and 75 µl of the DPPH solution (0.02%) were added. Optical densities were measured at 517 nm after 30 min of incubation in the dark. The negative control used DPPH alone, while the positive control used gallic acid treated with solutions of the synthesized compounds at final concentrations (50, 25, 12.5, 6.25, 3.125, 1.5625 and 0.78125)/Mi in mM. Synthesized compounds were also tested alone to assess fluorescence.
Assays were performed in duplicate, and results were averaged. Percentage inhibition (PI), reflecting the antioxidant activity related to the DPPH˙ radical scavenging effect, was calculated using the following formula:
(PI)=Acontrol−Atest/Acontrol×100,
where Acontrol = absorbance of the control sample and Atest = absorbance of the tested sample.
as §2

[4] = first replicate, read-out: FRAP SC50(1)
[5] = mean of duplicate, read-out: FRAP mean SC50
[6] = second replicate, read-out: FRAP SC50(2)
[7] = first replicate, read-out: ABTS SC50(1)
[8] = second replicate, read-out: ABTS SC50(2)
[9] = first replicate, read-out: DPPH SC50(1)
[10] = mean of duplicate, read-out: DPPH mean SC50
[11] = second replicate, read-out: DPPH SC50(2)

| EC50 [1, 4] | EC50 [1, 5] | EC50 [1, 6] | EC50 [2, 7] | EC50 ([2]; mean of duplicate, read-out: ABTS mean SC50) | EC50 [2, 8] | EC50 [3, 9] | EC50 [3, 10] | EC50 [3, 11] | Structure (SMILES) |
| --- | --- | --- | --- | --- | --- | --- | --- | --- | --- |
| 6.16 mM | 6.18 mM | 6.2 mM | 2.15 mM | 2.13 mM | 2.11 mM | 6.44 mM | 6.48 mM | 6.52 mM | CCCCCCCC/C=C\CCCCCCCC(=O)OCCOC(=O)C(C)c1ccc(CC(C)C)cc1 (centres unmarked) [Compound 5b, 2-((2-(4-isobutylphenyl)propanoyl)oxy)ethyl oleate] |
| 0.059 mM | 0.061 mM | 0.062 mM | 0.038 mM | – | 0.038 mM | 0.015 mM | 0.015 mM | 0.015 mM | O=C(O)c1cc(O)c(O)c(O)c1 [gallic acid, reference compound] |
